For assay [1], the species on record is Homo sapiens. The experiment in a line: Cleavage of DNA at 360 uM.
The species entered for assay [2] is Homo sapiens. Briefly: Cleavage of DNA at 180 uM in presence of cysteine.
The species named for assay [3] is Homo sapiens. The experiment in a line: Cleavage of DNA at 180 uM in anaerobic condition.
For assay [4], the species on record is Homo sapiens. Briefly: Cleavage of DNA at 180 uM.

The source made the active and inactive calls. No cut-off for these calls is given here.

For `C[S+]([O-])c1ccccc1` (centres undefined), the outcome in the assay filed under Homo sapiens [1] was Active.
As for `[O-][S+](c1ccccc1)c1ccccc1`, the result in the assay filed under Homo sapiens [2] and in the assay listed under Homo sapiens [3] was inactive. Moreover, in the assay listed under Homo sapiens [4], the outcome was Active.

Values taken from ChEMBL document CHEMBL1140537, “DNA cleavage by photolysis of aryl sulfoxides” (Bioorg Med Chem Lett, 2007).
